Test results published in US20070026478A1, “Hemiasterlin affinity probes and their uses” (WYETH, priority 2002, published 2007).
Marks after values point to notes of the source that are not given here.

Target: T1, bovine brain tubulin (Bos taurus, UniProt P81947+Q6B856)
T1 construct: MAP-rich bovine brain tubulin (99% purity), Hela cell tubulin (90% purity); purchased Cytoskeleton (Denver, Colo.); host or cells: bovine brain
Assay: Competition of [3H]-Probe 1 photolabeling of tubulin
Format: binding
Details: for inhibition of tubulin labeling by non-radiolabeled probe: 100 μM non-radiolabeled; for Probe 1 photolabeling of tubulin (% of no-competitor control): control (no competitor) = 100
Description: Alternatively, a cytosolic preparation of KB-3-1 cell lysates (50 μg) or KB-3-1 cells (40,000 cells) were used in the place of purified tubulin above. The supernatant of mechanically disrupted cells centrifuged at 100,000×g was used as a cytosolic preparation. K-3-1 cells were prepared by growing KB-3-1 cells in a 96-well plate and rinsing them with serum free medium.
If whole cells were used, Laemmli sample buffer was then added to lyse the cells.
Low grade SDS (Sigma, catalog No. L5750) was used in the running buffer, when needed, to allow separation of α and β-tubulin subunits. Gels were fixed, stained with Coomassie blue from BioRad (Hercules, Calif.) to ensure equal loading of protein, and sliced. […] Alternatively, gels were incubated with EN^3HANCE according to the manufacturer's instructions (Life Sciences Products, Inc.), washed, and dried prior to exposure of the gel to Biomax MX film from Kodak (Rochester, N.Y.) for fluorography.
After incubation for 30 minutes at 37° C., samples were irradiated with 360 nm UV light for 30 minutes and separated by SDS-PAGE. Gels were exposed to film using fluorographic techniques.
In particular, photolabeling experiments were performed as described in section 7.1.5 above, at both room temperature and at 37° C.

CN[C@H](C(=O)N[C@H](C(=O)N(C)[C@H](/C=C(\C)C(=O)O)C(C)C)C(C)(C)C)C(C)(C)c1ccc(C(=O)c2ccccc2)cc1 [Probe 1, 4-benzoyl-N,β,β-trimethyl-L-phenylalanyl-N^1-[(1S,2E)-3-carboxy-1-isopropylbut-2-enyl]-N^1,3-dimethyl-L-valinamide]
inhibition of tubulin labeling by non-radiolabeled probe (tubulin: radiolabeled probe 1 of 2.5:0.25 (10:1)): 93% | inhibition of tubulin labeling by non-radiolabeled probe (tubulin: radiolabeled probe 1 of 2.5:2.5 (1:1)): 82% | reduction of Probe 1 photolabeling of tubulin (37° C.): about 75% | Probe 1 photolabeling of tubulin (% of no-competitor control) (37° C., 100 μM competitor): 24^† % | Probe 1 photolabeling of tubulin (% of no-competitor control) (Room Temp., 2.5 μM tubulin, 0.25 μM radiolabeled Probe 1, 100 μM competitor): 12 ± 7.8% | IC50 (room temperature, 2.5 μM tubulin, 0.25 μM radiolabeled Probe 1, read-out: IC50 for inhibition of Probe 1 photolabeling of tubulin): 5 µM | reduction of Probe 1 photolabeling of tubulin (room temperature, 400-fold molar excess (100 μM) competitor, 2.5 μM tubulin, 0.25 μM radiolabeled Probe 1): approximately 87%
